In publication PMC3930709, “Selective Activation of hTRPV1 by N-Geranyl Cyclopropylcarboxamide, an Amiloride-Insensitive Salt Taste Enhancer” (PLoS ONE, 2014):
pEC50: −log10 of the molar value. Values joined by “and” are separate entries in the source; they are usually repeats but may differ in a detail not shown here. Equal entries are not always repeated.

Experiments:
hTRPV1 = biological target: T1, hTRPV1 (Homo sapiens, UniProt Q8NER1); experiment: Measurement of Ca2+ influx (Fluo-4 AM, FlexStation III) in hTRPV1-expressing cells; format: cell-based
T1 construct: expressed in transfected cells; host or cells: HEK293T
T1 sequence (Q8NER1 whole entry): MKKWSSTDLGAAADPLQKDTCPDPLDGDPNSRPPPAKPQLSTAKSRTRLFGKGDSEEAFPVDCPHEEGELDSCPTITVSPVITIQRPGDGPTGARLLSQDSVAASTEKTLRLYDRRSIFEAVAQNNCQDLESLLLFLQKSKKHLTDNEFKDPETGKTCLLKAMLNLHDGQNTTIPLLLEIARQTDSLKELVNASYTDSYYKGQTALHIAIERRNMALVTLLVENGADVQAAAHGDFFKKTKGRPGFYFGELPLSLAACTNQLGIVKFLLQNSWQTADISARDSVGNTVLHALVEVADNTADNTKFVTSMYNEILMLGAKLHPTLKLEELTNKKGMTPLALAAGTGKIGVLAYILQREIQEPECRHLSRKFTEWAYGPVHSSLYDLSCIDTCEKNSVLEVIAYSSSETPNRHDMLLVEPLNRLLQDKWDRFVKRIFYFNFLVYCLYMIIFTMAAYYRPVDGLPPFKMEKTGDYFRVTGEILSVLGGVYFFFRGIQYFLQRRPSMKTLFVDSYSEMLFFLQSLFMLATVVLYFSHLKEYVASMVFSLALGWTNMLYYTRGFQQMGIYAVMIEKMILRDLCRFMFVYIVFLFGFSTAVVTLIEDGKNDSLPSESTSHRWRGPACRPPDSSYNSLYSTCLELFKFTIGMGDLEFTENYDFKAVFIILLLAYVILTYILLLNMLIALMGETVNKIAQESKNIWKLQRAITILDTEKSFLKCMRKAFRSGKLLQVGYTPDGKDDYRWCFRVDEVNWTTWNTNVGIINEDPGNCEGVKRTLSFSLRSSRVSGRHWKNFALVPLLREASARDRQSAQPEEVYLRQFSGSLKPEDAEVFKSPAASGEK
Procedure: hTRPV1 was constructed by amplification of the hTRPV1 region (NCBI accession number: NG_029716.1) and cloned into pEAK10 vector (Edge Biosystems, Gaithersburg, MD, USA). The hTRPV1 construct was amplified by PCR and the nucleotide sequence of the hTRPV1 gene was confirmed by sequencing with an ABI 3130 DNA genetic analyzer (Applied Biosystems, Foster City, CA, USA). […] After 6 h, transfected cells were seeded onto 96-well black-wall plate (BD Falcon Labware, Franklin Lakes, NJ, USA) for 18–26 h prior to their use in an experiment. The ligand-induced changes on cytosolic Ca^2+ level were monitored by a FlexStation III microplate reader (Molecular Devices). Fluo-4 AM (5 µM, Molecular Probes, Eugene, OR, USA) in assay buffer was loaded to the cells in 96-well black-wall plates for 30 min at 27°C. After dye treatment, each chemical was added to each well at 17 s and changes on intracellular Ca^2+ level were monitored by relative fluorescence units (ΔRFU, Ex = 485 nm; Em = 516 nm) for 120 s. […] The responses from at least three wells receiving the same stimulus were averaged. Plots of amplitude versus concentration were fitted using the Hill equation.

[1] = test system: mock-transfected HEK293T cells; experiment: Ca2+ imaging of mock-transfected HEK293T cells (control); format: cell-based, human; conditions: single concentration
Procedure: Mock-transfected HEK293T cells, hTRPV1-expressing HEK293T cells, non-hTRPA1-expressing Flp-In 293 cells, and hTRPA1-expressing Flp-In 293 cells grown in 96-well black-wall plates were rinsed with assay buffer (130 mM NaCl, 10 mM glucose, 5 mM KCl, 2 […]2, 1.2 mM MgCl2, and 10 mM HEPES, pH 7.4) and loaded with 5 μM Fura-2 AM (Invitrogen) for 30 min at 27°C. The cells were washed with assay buffer and treated with ligands. […] The fluorescence intensities of Fura-2 excited at 340 and 380 nm were simultaneously measured at 510 nm using a computer-controlled filter changer (Lambda DG4; Sutter, San Rafael, CA, USA), an Andor Luca CCD camera (Andor Technology, Belfast, UK), and an inverted fluorescence microscope (IX-71; Olympus, Tokyo, Japan). Intracellular calcium images were recorded every 3-s for 60-s and analyzed using MetaFluor software (Molecular Devices, Sunnyvale, CA, USA).

non-transfected cells = experiment: Whole-cell patch clamp recording, non-transfected cells (control); format: cell-based, human; conditions: capsaicin 100 nM, AITC 100 µM, NGCC 10^3 µM
Procedure: Mouse ASIC1a (mASIC1a) was a kind gift from John A. Wemmie (University of Iowa, IA, USA). For electrophysiological experiments, HEK293T cells were cultured in DMEM supplemented with 10% FBS and 0.2% penicillin/streptomycin and transiently transfected using Lipofectamine 2000 (Invitrogen) with various cDNAs. For TRPV1 channel expression, cells were transfected with hTRPV1, for ASIC1a homomeric channel expression, cells were transfected with mASIC1a. When needed, 0.1–0.2 µg of cDNA encoding tetrameric red fluorescence protein (DsRed) was co-transfected with the cDNA as a marker for successfully transfected cells. For non-transfected cells, cells were transfected with 0.1–0.2 µg of cDNA encoding DsRed alone. The next day, cells were plated onto poly-L-lysine-coated coverslip chips, and fluorescent cells were studied within 1–2 days.
The whole-cell configuration was used to voltage-clamp at room temperature (22–25°C). Electrodes pulled from glass micropipette capillaries (Sutter Instrument) had resistances of 2–2.5 MΩ, and series resistance errors were compensated >60%. Fast and slow capacitances were compensated before the application of test-pulse. Recordings were performed using aHEKAEPC-10 amplifier with pulse software (HEKA Elektronik). […] TRPV1 and TRPA1 currents were recorded by holding the cell at −80 mV. […] ASIC currents were recorded by holding the cell at −70 mV. […]

CC(C)=CCC/C(C)=C/CNC(=O)C1CC1 [NGCC, N-geranylcyclopropylcarboxamide]
pEC50 (hTRPV1; hTRPV1-expressing HEK293T cells, Hill fit): 3.94 and ~3.94 | increase in [Ca2+]i relative to capsaicin (hTRPV1; hTRPV1-expressing cells): significantly smaller increase | change in fluorescence in mock-transfected cells [1]: no changes in fluorescence | current in non-transfected cells (non-transfected cells): no current
